Source: patent publication US8710224B2, “Heterocyclic compounds as CCR2B antagonists” (AstraZeneca AB, priority 2004, dated 2014)
Each block holds one compound with its values, some of them ahead of it.

Molecular target: T1, recombinant human CCR5 receptor (Homo sapiens, UniProt P51681)
T1 construct: expressed in transfected cells; host or cells: Chinese hamster ovary (CHO) cells; membranes
Experiment: Radioligand binding assay for inhibition of the binding of MIP-1α
Details: displacement of 0.1 nM iodinated MIP-1α; membranes of Chinese hamster ovary cells expressing CCR5
In short: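 Membranes from CHO cells expressing recombinant human CCR5 were incubated with 0.1 nM iodinated MIP-1α, scintillation proximity beads and compound at various concentrations. Bound radioligand was measured by scintillation counting.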

T1 sequence (P51681 whole entry): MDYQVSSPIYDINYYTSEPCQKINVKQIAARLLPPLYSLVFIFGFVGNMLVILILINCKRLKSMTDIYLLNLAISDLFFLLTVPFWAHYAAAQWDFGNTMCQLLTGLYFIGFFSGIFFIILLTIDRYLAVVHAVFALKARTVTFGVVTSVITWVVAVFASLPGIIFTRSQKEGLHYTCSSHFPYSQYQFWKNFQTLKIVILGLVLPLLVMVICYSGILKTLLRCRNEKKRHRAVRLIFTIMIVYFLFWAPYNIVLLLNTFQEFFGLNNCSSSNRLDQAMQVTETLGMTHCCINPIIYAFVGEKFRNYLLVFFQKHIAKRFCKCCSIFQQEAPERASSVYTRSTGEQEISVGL

Compound: O=C(Nc1ccc(Cl)c(Cl)c1)N1CCN(C[C@H]2CN(C3CCOCC3)CCO2)CC1 [Example 121, N-(3,4-dichlorophenyl)-4-{[(2S)-4-(tetrahydro-2H-pyran-4-yl)morpholin-2-yl]methyl}piperazine-1-carboxamide]
- IC50: < 10 µM

Compound: CS(=O)(=O)c1ccc(CCCN2CCC[C@@H](CN3CCN(C(=O)Nc4ccc(Cl)c(Cl)c4)CC3)C2)cc1 [Example 328, N-(3,4-Dichlorophenyl)-4-[((3R)-1-{3-[4-(methylsulfonyl)phenyl]propyl}piperidin-3-yl)methyl]piperazine-1-carboxamide]
- IC50: < 10 µM

Compound: Cc1ccc(NC(=O)N2CCN(C[C@@H]3CCCN(CCCc4ccc(S(C)(=O)=O)cc4)C3)CC2)cc1Cl [Example 324, N-(3-Chloro-4-methylphenyl)-4-[((3R)-1-{3-[4-(methylsulfonyl)phenyl]propyl}piperidin-3-yl)methyl]piperazine-1-carboxamide]
- IC50: < 10 µM

Compound: O=C(Nc1ccc(Cl)c(Cl)c1)N1CCN(C(=O)[C@H]2CN(CCc3ccccc3)CCN2)CC1 [Example 138, N-(3,4-Dichlorophenyl)-4-{[(2R)-4-(2-phenylethyl)piperazin-2-yl]carbonyl}piperazine-1-carboxamide]
- IC50: < 10 µM

Compound: O=C(Nc1ccc(Cl)c(Cl)c1)N1CCN(C(=O)[C@H]2CN(C3CC3)CCN2)CC1 [Example 135, 4-[(2R)(4-Cyclopropylpiperazin-2-yl)carbonyl]-N-(3,4-dichlorophenyl)piperazine-1-carboxamide]
- IC50: < 10 µM

Compound: O=C(Nc1ccc(Cl)c(Cl)c1)N1CCN(C(=O)C2CCN([C@H]3CC[C@](O)(c4ccncc4)CC3)C2)CC1 (stereo partly drawn) [Example 147, N-(3,4-dichlorophenyl)-4-{[1-(cis-4-hydroxy-4-pyridin-4-ylcyclohexyl)pyrrolidin-3-yl]carbonyl}piperazine-1-carboxamide]
- IC50: < 10 µM

Compound: CC(CC(C)(C)O)N1CCN[C@@H](C(=O)N2CCN(C(=O)Nc3ccc(Cl)c(Cl)c3)CC2)C1 (stereo partly drawn) [Example 269, N-(3,4-dichlorophenyl)-4-{[(2R)-4-(3-hydroxy-1,3-dimethylbutyl)piperazin-2-yl]carbonyl}piperazine-1-carboxamide]
- IC50: < 10 µM

Compound: O=C(Nc1ccc(Cl)c(Cl)c1)N1CCN(C(=O)[C@H]2CN(C3CCOCC3)CCN2)CC1 [Example 221, N-(3,4-dichlorophenyl)-4-{[(2R)-4-(tetrahydro-2H-pyran-4-yl)piperazin-2-yl]carbonyl}piperazine-1-carboxamide]
- IC50: < 10 µM

Compound: O=C(Nc1ccc(Cl)c(Cl)c1)N1CCN(C[C@@H]2CCCN(CCC3CCOCC3)C2)CC1 [Example 203, N-(3,4-Dichlorophenyl)-4-({(3R)-1-[2-(tetrahydro-2H-pyran-4-yl)ethyl]piperidin-3-yl}methyl)piperazine-1-carboxamide]
- IC50: < 10 µM

Compound: C[C@@H](CC(C)(C)O)N1CCO[C@@H](CN2CCN(C(=O)Nc3ccc(F)c(Cl)c3)CC2)C1 [Example 235, N-(3-chloro-4-fluorophenyl)-4-({(2S)-4-[(1S)-3-hydroxy-1,3-dimethylbutyl]morpholin-2-yl}methyl)piperazine-1-carboxamide]
- IC50: < 10 µM

Compound: CCN1CCC[C@@H](C(=O)N2CCN(C(=O)Nc3ccc(Cl)c(Cl)c3)CC2)C1 [Example 90, N-(3,4-dichlorophenyl)-4-{[(3R)-1-ethylpiperidin-3-yl]carbonyl}piperazine-1-carboxamide]
- IC50: < 10 µM

Compound: CS(=O)(=O)c1ccc(CCCN2CCC[C@@H](CN3CCN(C(=O)Nc4ccc(Cl)cc4)CC3)C2)cc1 [Example 325, N-(4-Chlorophenyl)-4-[((3R)-1-{3-[4-(methylsulfonyl)phenyl]propyl}piperidin-3-yl)methyl]piperazine-1-carboxamide]
- IC50: < 10 µM

Compound: CC(C)N1CCN[C@@H](C(=O)N2CCN(C(=O)Nc3ccc(C(F)(F)F)cn3)CC2)C1 [Example 311, 4-{[(2R)-4-isopropylpiperazin-2-yl]carbonyl}-N-[5-(trifluoromethyl)pyridin-2-yl]piperazine-1-carboxamide]
- IC50: < 10 µM

Compound: CC(C)N1CCN[C@@H](C(=O)N2CCN(C(=O)Nc3ccc(C(F)(F)F)cc3)CC2)C1 [Example 212, 4-{[(2R)-4-isopropylpiperazin-2-yl]carbonyl}-N-[4-(trifluoromethyl)phenyl]piperazine-1-carboxamide]
- IC50: < 10 µM

Compound: C=CCN1CCN[C@@H](C(=O)N2CCN(C(=O)Nc3ccc(Cl)c(Cl)c3)CC2)C1 [Example 303, N-(3,4-dichlorophenyl)-4-{[(2R)-4-(prop-2-en-1-yl)piperazin-2-yl]carbonyl}piperazine-1-carboxamide]
- IC50: < 10 µM

Compound: COc1ccc(CCN2CCC[C@@H](CN3CCN(C(=O)Nc4ccccc4)CC3)C2)cc1 [Example 250, 4-[[(3R)-1-[2-(4-methoxyphenyl)ethyl]-3-piperidyl]methyl]-N-phenyl-piperazine-1-carboxamide]
- IC50: < 10 µM

Compound: O=C(Nc1ccc(Cl)c(Cl)c1)N1CCN(C[C@H]2CN(C3CCC3)CCO2)CC1 [Example 115, 4-{[(2S)-4-cyclobutylmorpholin-2-yl]methyl}-N-(3,4-dichlorophenyl)piperazine-1-carboxamide]
- IC50: < 10 µM

Now from value to compound:

- IC50: < 10 µM
Compound: CCCC(C)N1CCOC(CN2CCN(C(=O)Nc3ccc(F)c(Cl)c3)CC2)C1 (stereo in doubt) [Example 237, N-(3-chloro-4-fluorophenyl)-4-({(2R)-4-[(1S)-1-methylbutyl]morpholin-2-yl}methyl)piperazine-1-carboxamide]

- IC50: < 10 µM
Compound: CC(C)N1CCN[C@@H](C(=O)N2CCN(C(=O)Nc3cccc(Cl)c3)CC2)C1 [Example 211, N-(3-chlorophenyl)-4-{[(2R)-4-isopropylpiperazin-2-yl]carbonyl}piperazine-1-carboxamide]

- IC50: < 10 µM
Compound: Cc1ccc(NC(=O)N2CCN(CC3CCCN(C)C3)CC2)cc1Cl (stereo not shown) [Example 26, N-(3-chloro-4-methylphenyl)-4-[(1-methylpiperidin-3-yl)methyl]piperazine-1-carboxamide]

- IC50: < 10 µM
Compound: CC(C)N1CCN[C@@H](C(=O)N2CCN(C(=O)Nc3cccc(C(F)(F)F)c3)CC2)C1 [Example 214, 4-{[(2R)-4-isopropylpiperazin-2-yl]carbonyl}-N-[3-(trifluoromethyl)phenyl]piperazine-1-carboxamide]

- IC50: < 10 µM
Compound: Cc1cccnc1CN1CCC[C@@H](CN2CCN(C(=O)Nc3ccc(Cl)c(Cl)c3)CC2)C1 [Example 44, N-(3,4-dichlorophenyl)-4-({(3S)-1-[(3-methylpyridin-2-yl)methyl]piperidin-3-yl}methyl)piperazine-1-carboxamide]

- IC50: < 10 µM
Compound: CCC(C)N1CCOC(CN2CCN(C(=O)Nc3ccc(F)c(Cl)c3)CC2)C1 (stereo in doubt) [Example 236, N-(3-chloro-4-fluorophenyl)-4-({(2R)-4-[(1R)-1-methylpropyl]morpholin-2-yl}methyl)piperazine-1-carboxamide]

- IC50: < 10 µM
Compound: CC(C)N1CCN[C@@H](C(=O)N2CCN(C(=O)Nc3ccc(Cl)cc3)CC2)C1 [Example 215, N-(4-chlorophenyl)-4-{[(2R)-4-isopropylpiperazin-2-yl]carbonyl}piperazine-1-carboxamide]

- IC50: < 10 µM
Compound: O=C(Nc1ccc(Cl)c(Cl)c1)N1CCN(C(=O)C2CCN([C@H]3CC[C@](O)(c4ccccn4)CC3)C2)CC1 (stereo partly shown) [Example 146, N-(3,4-dichlorophenyl)-4-{[1-(4-hydroxy-4-pyridin-2-ylcyclohexyl)pyrrolidin-3-yl]carbonyl}piperazine-1-carboxamide]
